Test results reported in patent US12599592B2, “Therapeutic small molecules for treatment of pulmonary hypertension” (UNIVERSITY OF PITTSBURGH—OF THE COMMONWEALTH SYSTEM OF …, priority 2020, dated 2026).
Where a SMILES comes first, the peptide text is derived from it. The star is where a group is joined. Cbz = O=C(OCc1ccccc1)*

Assays:
[1] = tested on: Cluster 15 (C15) genes incl. LGALS8; assay: RT-qPCR of Cluster 15 gene expression in PAECs; format: cell-based, human; conditions: PAECs + IL-1β; for IL-1β-induced expression changes in Cluster 15 members SLC9A3R1, LGALS3: 500 nM
Procedure: (§1) Human recombinant galectin-8 (1305-GA-050) was purchased from R&D Systems and was used at a working concentration of 30 nM.
(§2) RT-qPCR analysis: Cells were lysis in 1 ml of QiaZol reagent (Qiagen). Total RNA content was extracted using the RNeasy kit (Qiagen), according to the manufacturer's instructions. Total RNA concentration was determined using a BioTek Synergy multimode plate reader. Messenger RNAs were reverse transcribed to generate cDNA using the Multiscript RT kit (Thermo Fisher Scientific). cDNA for specific gene targets was amplified and quantified via fluorescently-labeled Taqman primer sets and Taqman fast advanced master mix (Thermo Fisher Scientific) using an Applied Biosystems QuantStudio 6 Flex Real-Time PCR System.

PAECs [2] = assay: Apoptosis by caspase-3/7 activity in PAECs; format: cell-based, human
Text: (§3) Cell culture: Primary human pulmonary artery endothelial cells (PAECs) and human pulmonary artery smooth muscle cells (PASMCs) were purchased from Lonza (302-05A, CC-2581). Of note, the same two male donors were the source of all PAECs in the experiments shown. Two additional male donors were the source for all PASMCs in the experiments shown. Cells from these and any donors were characterized by flow cytometry for consistent expression of cell surface markers and by RNA (RT-qPCR) analysis of endothelial and smooth muscle gene expression. PAECs were cultured in EGM-2 media (CC-3121) along with supplements (CC-4133), and PASMCs were cultured in SmGM-2 culture media (Lonza, CC-3182) at 5% CO2 in a humidified incubator.
as §1
(§4) For hypoxia exposure, cells were plated in 6-well cell culture plates at 1×10^5 cells/well, grown for 24 hr and placed into a normobaric hypoxia chamber (1% O2) for 24 h under specific treatment conditions. Namely, for I-BET and siLGALS8 exposures, cells were either pre-treated with I-BET/vehicle control (VC) or transfected with siLgals8/Scr for 24 h. Then, they were cultured in basal media at 1% 02. After 24 h, caspase activity and mitochondrial superoxide levels were quantified. To detect activation status of pSTAT1/STAT1 by immunoblot, cells were exposed to 8 h of hypoxia.
(§5) In IL-6/sIL-6R+hypoxia experiments, a human recombinant IL-6/IL-6R alpha protein chimera (25 ng/ml, Millipore) was administered at 70-80% confluency for 48 h in complete media along with vehicle control (DMSO, Sigma-41639). BRD2889 (1 uM) vs. vehicle control were added, as indicated, and placed into a hypoxia chamber for 24 h. The hypoxia chamber (modular incubator chamber) was obtained from Billups-Rothenberg Inc. (Del Mar, Calif) and placed in regulated CO2 incubator at 37° C.
Cellular apoptosis: Caspase-3/7 activity was quantified using the Caspase-Glo 3/7 Assay (Promega), according to manufacturer's instructions. Caspase-3/7 activity was normalized to total protein content determined by BCA method (Thermo Fisher Scientific).

PAECs [3] = assay: Mitochondrial superoxide by MitoSOX Red flow cytometry in PAECs; format: cell-based, human
Text: as §3, §1, §4
Flow cytometry detection of mitochondrial superoxide: For measuring mitochondrial superoxide, cells were incubated with 5 μM of MitoSOX Red mitochondrial superoxide indicator (Thermo Fisher Scientific) for 10 min in 37° C. CO2 incubator. Next, cells were washed with 1×PBS, trypsinized, and fluorescence (488 nm/580 nm) was measured on flow analyzer (BD LSR FORTESSA or BD LSRII) using BD […] software.

Cluster 15 (C15) genes = assay: RT-qPCR of Cluster 15 gene expression in PASMCs; format: cell-based, human; conditions: PASMCs + IL-1β
Text: as §3, §1
as §2, with “Total RNA content was extracted using the RNeasy kit (Qiagen), according to the manufacturer's instructions.” left out

LGALS8 = assay: Immunoblot and densitometry of LGALS8 isoforms in PAECs; format: cell-based, human; conditions: PAECs + IL-1β
Procedure: as §1
(§6) Immunoblot and densitometry: Cells were lysed in RIPA buffer (Sigma) along with 1× protease inhibitor cocktail (Sigma). Protein lysate was resolved by gradient 4%-15% SDS-PAGE gels and transferred onto a 0.2 μm PVDF membrane (Bio-Rad). Membranes were blocked in 5% non-fat milk in 1×PBST buffer for one hour at room temperature. Later, they were incubated in the presence of the primary antibody overnight at 4° C. and then appropriate HRP-conjugated secondary antibodies (Life Technologies). The following antibodies were used: human LGALS8 (AF1305, RnD Systems), mouse/rat Lgals8 (ab69631, Abcam), pSTAT1 (ab29045, Abcam) and STAT1 (ab47425, Abcam), GSTP1 (ab153949, Abcam), ISCU (14812-1-AP, Prointech), Glutathione (ab19534, Abcam), HIF2A (NB100-122, Novous), α-Tubulin (CP06, Millipore sigma), and ACTB (sc-47778, Santa Cruz). The immunoreactive bands were visualized with the Chemidoc XRS+system (Bio-Rad) using SuperSignal West Femto chemiluminescent substrates (Thermo Fisher Scientific). The images were later quantified using AlphaEaseFC software (Alpha Innotech).

[4] = tested on: SU5416-hypoxic pulmonary arterial hypertension rats; assay: SU5416-hypoxia pulmonary arterial hypertension rat model; format: in vivo, Sprague-Dawley rats
Procedure: Briefly, 10 week old male Sprague-Dawley rats were injected i.p. with 20 mg/kg of SU5416 (Sigma), placed in normobaric hypoxia (10% O2) for 3 weeks and then transferred to normoxia for 2 weeks. During hypoxic exposure, chambers were opened twice a week for cleaning and replenishment of food and water. […] For BRD2889 vs. vehicle control dosing, i.p. injections every 5 days (5 mg/kg) were administered during the final two weeks of normoxia. Oxygen concentrations were continuously monitored with blood gas analyzers.
Following euthanasia, right ventricle/[left ventricle+septum]
Measurement of GST activity: The GST activity from lung tissue and PAECs was assayed using GST assay kit (Cayman, MI, USA) per the manufacturer's instructions.
Rodent echocardiography: Echocardiography was performed using a 15-45 MHz transthoracic transducer and a Visual Sonics Vevo 3100 system (Fujifilm). Inhaled isoflurane anesthesia was used at 2% in 100% O2 during positioning and hair removal and then decreased to isoflurane 0.8% during imaging.

PAECs [5] = assay: Global transcriptome microarray in PAECs; format: cell-based, human; conditions: IL-1β +/- I-BET762, microarray
Text: The gene expression was normalized with Robust Multiarray Analysis (RMA). For BRD2889, the same approach was employed using Affymetrix Clariom S array on RNA isolated from PAECs treated with BRD2889 or vehicle and subjected to either hypoxia or normoxia. Differentially expressed genes were defined as any gene for which the FDR adjusted p-value was below 0.05 (n=3/grp). Reversed genes were further defined as those genes that were differentially expressed in both (hypoxia versus normoxia) and in (hypoxia+BRD2889 versus hypoxia)+vehicle as well as were regulated in opposite directions. Similarly, for I-BET that were differentially expressed in IL-1β+VC versus control and IL-1β+I-BET versus IL-1β+VC and were regulated in opposite directions. The data for both I-BET and BRD2889 have been submitted to the NCBI Gene Expression Omnibus with accession numbers GSE125508 and GSE160255, respectively.

chronically hypoxic mice = assay: Hypoxia-induced pulmonary hypertension mouse model
Text: Animal models: For the hypoxia-induced pulmonary hypertension mice, male C57BL/6J mice (8 weeks old) (RRID:IMSR_JAX:000664) were purchased from Jackson laboratory and acclimatized for 3-4 days in this facility. Subsequently, mice scheduled for normoxic vs. hypoxic exposure were maintained in either normoxia or a normobaric hypoxia chamber for 1 or 3 weeks (OxyCycler, Biospherix Ltd.), where consistent exposure to 10% oxygen and control for temperature and humidity were possible. For testing the activity of I-BET in hypoxia-induced pulmonary hypertension mice, three experimental groups—normoxia+VC (vehicle control), hypoxia+VC (vehicle control), and hypoxia+I-BET were used.
I-BET was dissolved in DMSO at 100× concentration and then made into a working solution in 20% PEG400 and 80% 1×PBS. BRD2889 was made into a working solution of 2.5% DMSO.
Male and female 8 week old Lgals8−/− mice were exposed to hypoxia for 3 weeks. Littermates were used as wildtype (WT) control when comparing with knockout mice.
Immunofluorescent staining: Cryostat sections were cut from OCT-embedded lung tissues at 5-10 μm and mounted on gelatin-coated histological slides. Slides were thawed at room temperature for 10-20 min and rehydrated in wash buffer for 10 minutes. All sections were blocked in 10% donkey serum and exposed to primary antibody and Alexa 488, 568 and 647-conjugated secondary antibodies (Thermo Fisher Scientific). The following primary antibodies were used: Lgals8 (Ab69631, Abcam; 1/200), IL-1β (ab9722, Abcam; 1/200), GSTP1 (ab153949, Abcam; 1:100), ISCU (14812-1-AP, Proteintech; 1:100), cleaved caspase 3 (cs-9661, Cell Signaling; 1/400), α-SMA (F3777, Sigma; 1/200) and CD31 (ab7388, Abcam; 1/200). Images were obtained using Nikon A1 confocal microscope with 40× objective. Small pulmonary vessels (10 vessels/section) that were not associated with bronchial airways were selected for analysis. Intensity of staining was quantified using ImageJ software (NIH). Degree of pulmonary arteriolar muscularization was assessed in OCT lung sections stained for α-SMA by calculation of the proportion of fully and partially muscularized peripheral (<100 μm diameter) pulmonary arteriole to total peripheral pulmonary arterioles (Bertero T et al. J Clin Invest. 2014, 124, 3514-3528).

ISCU = assay: Immunoblot of ISCU and GSTP1 in PAECs; format: cell-based, human; conditions: hypoxic PAECs, MG132 5 mM, 2 h
Procedure: as §4, §5
(§7) Protein stability assay: The proteasome inhibitor MG132 (M7449, Sigma) was stored at −20° C. at a concentration of 10 mM diluted in dimethyl sulfoxide (DMSO). PAECs were exposed to MG132 ([…]) vs. DMSO vehicle control for 2 hr under hypoxia, prior to harvesting of cellular lysate for immunoblotting.
as §6

glutathionylated ISCU = assay: ISCU glutathionylation by immunoprecipitation and immunoblot in PAECs; format: cell-based, human; conditions: hypoxic PAECs, MG132 5 mM, 2 h
Procedure: as §7
Immunoblot and densitometry: Cells were lysed in RIPA buffer (Sigma) along with 1× protease inhibitor cocktail (Sigma). Protein lysate was resolved by gradient 4%-15% SDS-PAGE gels and transferred onto a 0.2 μm PVDF membrane (Bio-Rad). Membranes were blocked in 5% non-fat milk in 1×PBST buffer for one hour at room temperature. Later, they were incubated in the presence of the primary antibody overnight at 4° C. and then appropriate HRP-conjugated secondary antibodies (Life Technologies). […] The images were later quantified using AlphaEaseFC software (Alpha Innotech).
Immunoprecipitation: PAECs were transfected with the indicated combinations of siRNAs by Lipofectamine 2000 (Thermo Fisher Scientific) according to the manufacturer's instructions and/or treated with BRD2889 ([…], 24 h). […] After extensive washing, the immunoprecipitated proteins were analyzed by immunoblotting with the indicated antibodies.

[6] = tested on: normal, non-transformed cells; liver and kidney; conditions: literature report; cited from earlier work
[7] = target: glutathione S-transferase pi 1 (GSTP1) (Homo sapiens, UniProt P09211); conditions: literature report; cited from earlier work
[8] = PAECs + IL-1β 10 ng/ml 48 h, I-BET762 500 nM vs vehicle
[9] = PAECs, hypoxia 1% O2 24 h, I-BET pre-treatment
[10] = I-BET762 30 mg/kg i.p. daily, Days 21-35
[11] = I-BET762 30 mg/kg daily oral gavage, chronic hypoxia
[12] = IL-1β-exposed (48 h) PAECs treated with I-BET and rhGal8 (24 h)
[13] = PAECs, rhGal8 alone (30 nM, 24 h)

Sequence of glutathione S-transferase pi 1 (GSTP1) (P09211 whole entry, species assumed): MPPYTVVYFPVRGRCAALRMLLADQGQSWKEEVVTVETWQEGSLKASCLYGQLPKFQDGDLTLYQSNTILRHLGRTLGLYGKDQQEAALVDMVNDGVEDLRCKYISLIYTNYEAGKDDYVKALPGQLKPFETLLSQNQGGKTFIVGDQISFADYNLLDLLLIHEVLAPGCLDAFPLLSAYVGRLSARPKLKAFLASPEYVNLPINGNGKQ

## COc1cc2c(cc1-c1c(C)noc1C)ncc1[nH]c(=O)n([C@H](C)c3ccccn3)c12 [I-BET151]
[1]
  IL-1β-induced expression changes in Cluster 15 members SLC9A3R1, LGALS3: reversed

## CCNC(=O)C[C@@H]1N=C(c2ccc(Cl)cc2)c2cc(OC)ccc2-n2c(C)nnc21 [I-BET762]
PAECs [2]; [8]
  apoptosis (caspase-3/7 activity): reduced the IL-1β-dependent increase
PAECs [2]; [9]
  apoptosis (caspase-3/7 activity): reversed the hypoxia-induced increases
PAECs [3]; [8]
  mitochondrial superoxide (O2-) levels: reduced the IL-1β-dependent increase
PAECs [3]; [9]
  mitochondrial superoxide levels: reversed the hypoxia-induced increases
Cluster 15 (C15) genes
  alteration and reversal of C15 genes including LGALS8: not observed
LGALS8
  LGALS8-L protein (immunoblot): reversed the IL-1β-induced increase of the L isoform
[1]
  LGALS8-L transcript: reversed
  LGALS8-M transcript: not altered
  IL-1β-induced expression changes in Cluster 15 members SLC9A3R1, LGALS3: reversed
[1]; I-BET762 500 nM
  expression of C15 genes LGALS3, LGALS8, ABCC4, CD47, SLC9A3R1, DAG1: reversed
  extent of reversal of C15 genes LGALS3, LGALS8, DAG1, SLC9A3R1: near complete reversal
[4]; [10]
  LGALS8 in pulmonary arterioles (immunofluorescence): decreased
  arteriolar muscularization: reduced
  cleaved caspase-3 (CC-3) in pulmonary arterioles: decreased
  right ventricular systolic pressure (RVSP): reduced
[4]; I-BET762 vs vehicle
  left ventricular function (LVPW thickness, LVEF, LVFS; echocardiography): did not exhibit altered left ventricular function
PAECs [5]
  number of genes altered by IL-1β vs vehicle and reversed by drug: 524 genes
Chronically hypoxic mice; [11]
  heart rate: without significant effect
  pulmonary vascular LGALS8, including in endothelial cells: robustly decreased
  pulmonary vascular muscularization (α-SMA stain): reduced
  right ventricular systolic pressure (RVSP): reduced
Chronically hypoxic mice; hypoxic mice, most notable at early stage (1 week hypoxia)
  downstream apoptosis (cleaved caspase-3): reduced downstream apoptosis
Chronically hypoxic mice; normoxic mice, similar dosing, mean±SEM, vehicle 1±0.02, p=NS
  LGALS8 in normoxic mice: 1.08±0.03 fold change

## CC(C)C[C@@H](C=O)NC(=O)[C@H](CC(C)C)NC(=O)[C@H](CC(C)C)NC(=O)OCc1ccccc1 [MG132, reference compound] (Cbz-Leu-Leu-Leu-aldehyde)
ISCU
  ISCU protein: reversed the hypoxic down-regulation
Glutathionylated ISCU
  GSTP1 or ISCU glutathionylation: without affecting

## COc1cc(/C=C/C(=O)N2CCC=CC2=O)cc(OC)c1OC [piperlongumine, reference compound]
[6]
  toxicity to normal, non-transformed cells: minimal toxicity
[7]
  inhibition of GSTP1: reported to inhibit

B1: rhGal8: recombinant human galectin-8 (R&D Systems 1305-GA-050) (protein, UniProt O00214 1-317, looked up)
Galectin-8: MMLSLNNLQNIIYNPVIPFVGTIPDQLDPGTLIVIRGHVPSDADRFQVDLQNGSSMKPRADVAFHFNPRFKRAGCIVCNTLINEKWGREEITYDTPFKREKSFEIVIMVLKDKFQVAVNGKHTLLYGHRIGPEKIDTLGIYGKVNIHSIGFSFSSDLQSTQASSLELTEISRENVPKSGTPQLRLPFAARLNTPMGPGRTVVVKGEVNANAKSFNVDLLAGKSKDIALHLNPRLNIKAFVRNSFLQESWGEEERNITSFPFSPGMYFEMIIYCDVREFKVAVNGVHSLEYKHRFKELSSIDTLEINGDIHLLEVRSW
PAECs [2]; [12]
  I-BET-induced attenuation of IL-1β-specific apoptosis (caspase 3/7): reduced the ability of I-BET to decrease
PAECs [2]; [13]
  apoptosis (caspase 3/7 activity): no effect
PAECs [3]; [12]
  I-BET-induced attenuation of IL-1β-specific mitochondrial superoxide: reduced the ability of I-BET to decrease
PAECs [3]; [13]
  mitochondrial superoxide: no effect
